Marks after values point to notes of the source that are not given here.
Test system: inseminated bovine oocytes co-cultured with cumulus-granulosa cells
Experiment: Example 5: Hb (1 μg/ml) added to mBECM-C at different times of co-culture with CGs
Type: cell-based
Settings: for No of embryos developed to the 2-cell / % of embryos developed to the 2-cell: examined 48 h; for No of embryos developed to the 8-cell / % of embryos developed to the 8-cell: examined 60 h; for No of embryos developed to the 16-cell / % of embryos developed to the 16-cell: examined 120 h; for No of embryos developed to the Morula / % of embryos developed to the Morula: examined 144 h; for No of embryos developed to the Blastocyst / % of embryos developed to the Blastocyst: examined 192 h
Method: mBECM containing 10 μM β-mercaptoethanol was used to culture embryos, as described in J. Lim et al., “Roles of growth factors in the development of bovine embryos fertilized in vitro and cultured singly in a defined medium,” Reprod. Fertil. Dev., 8, 1199-1205 (1996). To culture individual 8-cell embryos we used mBECM supplemented with 1 ng/ml platelet derived growth factor type AB (PDGF; Upstate Biotechnology Inc., Lake Placid, N.Y.), 1 ng/ml transforming growth factor-β (TGF; R & D System, Minneapolis, Minn.), 50 ng/ml arachidonic acid (AA; Cayman Chemical Co., Ann Arbor, Mich.), 100 μM glutathione (GSH; Sigma Co.) and 1 mg/ml polyvinyl alcohol (PVA) (mBECM-S). mBECM to which 10% (v/v) FBS was added (mBECM-C) was used for co-culturing inseminated zygotes with CGs and for producing 8-cell embryos. Osmolarity of the medium was maintained within the range of 265-290 mOsm.
The bovine cumulus-oocyte complexes (COCs) used were collected in Madison, Wis. (BOMED, Inc.), and were shipped in 2-ml of maturation medium in a battery powered incubator via overnight express mail service. Oocytes matured during transit and arrived within 24 h after exposure to maturation medium, pre-equilibrated at 39° C. in 5% CO2 in air. At 22-24 h after exposure to the medium, the COCs were inseminated in vitro as described in J. Lim et al., “Intracytoplasmic glutathione concentration and the role of β-mercaptoethanol in preimplantation development of bovine embryos,” Theriogenology, 46, 429-439 (1996). At 18 h post-insemination, COCs were cultured in groups (30-35 embryos) in a 4-well multidish (Nunc, Roskilde, Denmark) containing 0.8-ml of mBECM-C. Embryos were dislodged from CGs at 36-48 h post-insemination.
In Example 1, embryos (83-85 per group) collected 18 h post-insemination were cultured in mBECM-C, to which 0, 0.008, or 0.04 mM SNP was added at 18 or 60 h post-insemination. In Example 2, 8-cell embryos (80 per group) were produced in a co-culture system containing CGs and mBECM-C, and then beginning at 60 h post-insemination were cultured singly in a defined culture medium (mBECM-S), to which 0, 0.0016, 0.008, or 0.04 mM of SNP (S-0501, Sigma Co.) was added. In Example 3 embryos, either uncleaved (n=99) or developed to the 2-cell stage (90), were collected 48 h post-insemination; and cleaved embryos, either developed to the morula stage (69) or degenerate (63) were collected 144 h post-insemination. NO metabolites were then measured in the embryos. In Example 4, three groups of 95 zygotes each were co-cultured with CGs in mBECM-C, to which 0, 1, or 10 μg/ml Hb (bovine, mainly methemoglobin, H-2500, Sigma Co.) was added. […] In Example 6, inseminated oocytes (93 per group) were cultured in the presence or absence of CGs in mBECM-C to which either 0 or 1 μg/ml Hb was added. In Example 7, 8-cell embryos (100 per group), obtained after culture in mBECM-C supplemented with Hb (1 μg/ml), were cultured singly in mBECM-S, with or without Hb.
Oocytes or 8-cell embryos were randomly and equally allocated to each treatment group. In Examples 1, 2, and 4-7, oocytes or embryos that had developed to the 2-cell, 8-cell, >8-cell, 16-cell morula, and blastocyst stages were individually scored ‘1’ (developed) at 48, 60, 96, 120, 144 and 192 h post-insemination, respectively. […] Sums of the scores in each stage of development were evaluated by analysis of variance (ANOVA) using the general linear model (PROC-GLM) in the SAS program software. In Example 3, concentrations of NO metabolites in embryos were subjected to ANOVA. […] Differences were regarded as statistically significant where P values were less than 0.05.

[1] = Hb 1 μg/ml added 18 h post-insemination (1-cell)
[2] = Hb 1 μg/ml added 18 h post-insemination (1-cell), 104 oocytes
[3] = Hb 1 μg/ml added 60 h post-insemination (8-cell)
[4] = Hb 1 μg/ml added 60 h post-insemination (8-cell), 104 oocytes
[5] = Hb 1 μg/ml added 144 h post-insemination (Morula)
[6] = Hb 1 μg/ml added 144 h post-insemination (Morula), 103 oocytes

## hemoglobin [Hb]
[1]
  Ratio of blastocysts to morulae: 0.74
  % of embryos developed to the 2-cell: 73%
  % of embryos developed to the 8-cell: 50%
  % of embryos developed to the 16-cell: 43%
  % of embryos developed to the Morula: 33%
  % of embryos developed to the Blastocyst: 24%
[2]
  No of embryos developed to the 2-cell: 76
  No of embryos developed to the 8-cell: 52
  No of embryos developed to the 16-cell: 45
  No of embryos developed to the Morula: 34
  No of embryos developed to the Blastocyst: 25
[3]
  Ratio of blastocysts to morulae: 1.00
  % of embryos developed to the 2-cell: 64%
  % of embryos developed to the 8-cell: 38%
  % of embryos developed to the 16-cell: 34%
  % of embryos developed to the Morula: 29%
  % of embryos developed to the Blastocyst: 29%
[4]
  No of embryos developed to the 2-cell: 67
  No of embryos developed to the 8-cell: 40
  No of embryos developed to the 16-cell: 35
  No of embryos developed to the Morula: 30
  No of embryos developed to the Blastocyst: 30
[5]
  Ratio of blastocysts to morulae: 0.96
  % of embryos developed to the 2-cell: 62%
  % of embryos developed to the 8-cell: 33%
  % of embryos developed to the 16-cell: 27%
  % of embryos developed to the Morula: 22%
  % of embryos developed to the Blastocyst: 22 (22)^c,d %
[6]
  No of embryos developed to the 2-cell: 64
  No of embryos developed to the 8-cell: 34
  No of embryos developed to the 16-cell: 28
  No of embryos developed to the Morula: 23
  No of embryos developed to the Blastocyst: 22 (22)^c,d
Hb 1 μg/ml added at 18 or 60 h post-insemination, controls 13%
  proportion of blastocysts: 24-29%
